Reference: the NIST ThermoML archive (doi:10.1016/j.jct.2012.01.001)
Numbers after ± are expanded uncertainties.

Experiment: Molar enthalpy of transition or fusion
Conditions: Crystal; DSC

| Molar enthalpy of transition or fusion | SMILES |
| --- | --- |
| 5.34 ± 0.16 kcal/mol | COc1cc(C=O)ccc1O [vanillin] |
| 5.17 ± 0.155 kcal/mol | Oc1cccc2ccccc12 [1-naphthol] |
| 5.04 ± 0.151 kcal/mol | Oc1ccc2ccccc2c1 [2-hydroxynaphthalene] |
